Laboratory results: patent publication US20210275640A1, “METHODS FOR ENHANCING PERMEABILITY TO BLOOD-BRAIN BARRIER, AND USES THEREOF” (ACADEMIA SINICA, priority 2014, published 2021)
Where “and” joins values, the source holds several entries; their conditions need not be identical. Identical values can stand only once. Like-named read-outs stand apart in the source and are kept apart here.

What was measured:
[1] = tested on: U-87MG glioblastoma xenograft; details: for Median Survival: VEGF 0.3 μg/kg where given
Description: The human luciferase-expressing glioblastoma cell line U-87MG was used for all GBM experiments. Cells were routinely cultured in EMEM with 10% FBS, at 37° C. with 5% CO2.
BALB/c nude mice were orthotropically xenografted with U87 glioma cells (2×10^5) by stereotactic (2 mm right and 1 mm posterior to the bregma, 3.5 mm deep from the dura) injection into the brain. Mouse tumor progression was measured by IVIS at different time points (0, 1, 3, 7 . . . every 7 days until 60 days).
The DNA methylating drug temozolomide (TMZ) was used as therapy for GBM model mice. […] Tumor growth was monitored by in vivo bioluminescent imaging. Mice were observed over 60 days and their survival rates recorded on a Kaplan-Meier survival curve.

[2] = tested on: blood-brain barrier (BBB)
[3] = tested on: U87 MG human glioblastoma xenograft; assay: Effect of intravenous VEGF on tumor luminescence in U87 MG intracranial xenograft (IVIS); format: in vivo, BALB/c NU mice; details: paired t-test per mouse
[4] = tested on: MCAO ischaemic stroke model; assay: Middle Cerebral Artery Occlusion (MCAO) model, hMSC cell therapy with VEGF pre-treatment; format: in vivo, rats
Text: The procedure published by Boyko and colleagues (Boyko, et al., Journal of Neuroscience Methods 193(2): 246-253; 2010) was used to create a middle cerebral artery occlusion (MCAO) model in rats. In brief, the left side carotid bifurcation was exposed with a self-retractor. After carefully separating the […] (ICA) from peripheral soft tissue, a small opening was created at the proximal ICA. Silicon-coated 4-0 monofilament nylon was inserted from the opening and penetrated forward to the beginning of middle cerebral artery (MCA). An O2C oximeter was used to transcranially monitor the ipsilateral MCA blood flow. Once blood flow decreased successfully, the nylon suture was fixed in situ, mimicking ischaemic stroke. After 90 minutes of ischaemic injury, the suture was removed, allowing reperfusion. A stable and reproducible cerebral infarction could be created with this procedure. […] MCAO model rats were divided into four groups: […] Discosoma sp. Red (Ds-Red)-expressing human mesenchymal stem cells (hMSCs) were used for MCAO cell therapy. […] To evaluate the infarction size, rats were sacrificed three days after ischaemic-reperfusion injury and treatment. […] Brain slices were then scanned and the infarction size was calculated by measuring the pale area with ImageJ software. […]

[5] = tested on: blood-brain barrier (BBB); remark: listed apart in the source
[6] = tested on: blood-brain barrier (BBB); assay: Penetration of PEGylated fluorescent nanoparticles through the BBB (IVIS, immunohistochemistry); format: in vivo, FVB mice; details: 0.3 μg/Kg VEGF iv 45 min before PEGylated nanoparticles
Text: COOH-modified nanoparticles (20 to 500 nm) were covalently modified with methoxy (MeO)-PEG-amine (NH2) according to previously published protocols (Nance et al., Sci Transl Med 4(149): 149ra119; 2012). PEGylated fluorescent nanoparticles of 20 nm, 100 nm and 500 nm were used to investigate the biodistribution and extravasation after intravenous injection and perfusion into FVB mice. These nanoparticles were quantified by IVIS and immunohistochemistry.
All IVIS images were taken using a Xenogen IVIS Spectrum device (PerkinElmer, Waltham, Mass.).
The mice were subjected to perfusion following routine procedures 30 minutes after injection of the nanoparticles and the brain tissues were analyzed by IVIS imaging and immunohistochemistry. FIG. 2, panel A. The amount of nanoparticles accumulated in the brain tissue (i.e., across the BBB) was determined by measuring the intensity of the fluorescent signals. Results are illustrated in FIG. 2, panels B-D.

Cn1nnc2c(C(N)=O)ncn2c1=O [TMZ, temozolomide]
Delay of GBM growth ([1]; 5 mg/kg TMZ, vs GBM mice not treated by TMZ): at least 20 days
Median Survival vs vehicle (% increase) ([1]; GBM mice, TMZ 5 mg/kg): 31.58 % increase
Median Survival ([1]; GBM mice, TMZ 5 mg/kg): 50 days
Median Survival vs vehicle (% increase) ([1]; GBM mice, TMZ 20 mg/kg): 31.58 % increase
Median Survival ([1]; GBM mice, TMZ 20 mg/kg): 50 days

vascular endothelial growth factor [VEGF]
Persistence of increased BBB permeability ([2]; 0.3 μg/kg VEGF): at least 60 min
Time of maximum BBB permeability after VEGF ([2]; 0.3 μg/kg VEGF): about 45 min
Time after VEGF injection at which significant BBB permeability increase was observed ([2]; 0.3 μg/kg VEGF, EB injected after VEGF): 15 min
Time to return to normal BBB permeability ([2]; after VEGF administration): 2 h
Duration of increased BBB permeability ([2]; low dose VEGF): about 1 hr
BBB permeability of EB (Evans Blue content of brain tissue) ([2]; mice, VEGF 0.1-2.0 μg/kg, vs saline control): increased BBB permeability
Time of peak BBB permeability after VEGF administration ([2]; summary statement): 45 min
Increase of BBB permeability ([2]; temporary increase after VEGF administration): approximately three-fold
Change of tumor size from D21 to D27 [3]: tumors were larger
Brain infarction ([4]; MCAO, VEGF pre-treatment 0.3 μg/kg): reduced the brain infarction
hMSCs delivered to the brain (Ds-Red fluorescent intensity) ([4]; hMSCs 35 min after 0.3 μg/kg VEGF, vs control): more hMSCs were delivered to the brain
Median Survival with VEGF vs TMZ alone (% increase) ([1]; GBM mice, TMZ 5 mg/kg): 10 % increase
Delay in tumor growth by TMZ with VEGF pre-treatment ([1]; VEGF 0.3 μg/kg before 5 mg/kg TMZ): further enhanced the delay in tumor growth
Cortex, signal to noise ratio T1WI Post-iv ([5]; 5 minutes after 0.2 mmol/kg gadolinium contrast agent, given 45 min after VEGF): 58.30
Increase % of signal to noise ratio (detectable level of gadolinium contrast agent in brain) ([5]; average, VEGF 0.3 ug/kg pre-treatment): 15.5%
Signal to noise ratio (SNR) enhancement, individual mice ([5]; each of the 3 VEGF-treated mice): 17% and 14% and 15.5%
Nanoparticles crossing the BBB (fluorescence intensity in brain) [6]: facilitated the nanoparticles to cross BBB
